The text below walks through data of patent publication US9351974B2, “Substituted pteridinones for the treatment of cancer” (OSI Pharmaceuticals, LLC, priority 2011, dated 2016).

Structures are written as SMILES.

In the test the target is T1, His-tagged full-length RSK2 (RPS6KA3) (Homo sapiens, UniProt P51812).
T1 construct: His-tagged full-length RSK2 (RPS6KA3, Invitrogen PV3323); His; purchased Invitrogen PV3323
T1 sequence (P51812 whole entry): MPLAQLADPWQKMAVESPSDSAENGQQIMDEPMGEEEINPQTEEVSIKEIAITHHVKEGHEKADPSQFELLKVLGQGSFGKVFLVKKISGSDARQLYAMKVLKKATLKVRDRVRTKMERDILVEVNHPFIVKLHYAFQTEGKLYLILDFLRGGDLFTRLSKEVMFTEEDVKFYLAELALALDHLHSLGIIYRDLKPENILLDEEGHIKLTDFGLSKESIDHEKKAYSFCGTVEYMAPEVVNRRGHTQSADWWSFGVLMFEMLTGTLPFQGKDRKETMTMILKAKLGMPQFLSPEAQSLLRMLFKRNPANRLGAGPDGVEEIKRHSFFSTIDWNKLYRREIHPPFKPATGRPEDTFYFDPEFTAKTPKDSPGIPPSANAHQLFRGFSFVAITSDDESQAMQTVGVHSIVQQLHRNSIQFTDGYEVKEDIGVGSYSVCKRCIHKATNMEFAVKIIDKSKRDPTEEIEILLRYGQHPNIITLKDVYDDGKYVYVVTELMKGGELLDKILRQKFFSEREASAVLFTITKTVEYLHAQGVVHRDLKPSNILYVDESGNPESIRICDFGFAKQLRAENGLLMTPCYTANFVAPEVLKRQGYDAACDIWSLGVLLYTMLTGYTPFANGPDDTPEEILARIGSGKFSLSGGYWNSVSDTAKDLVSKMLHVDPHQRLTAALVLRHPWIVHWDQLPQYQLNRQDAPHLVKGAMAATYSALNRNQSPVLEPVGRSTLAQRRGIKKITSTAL
As to the kind of experiment: RSK2 Omnia Assay for compound IC50 determination. As to conditions: ATP 15 μM, n=2, read-out: Mean RSK2 Biochem IC50. Type of test: biochemical. On the procedure: RSK1 & RSK2 Omnia Assay Protocol for Compound IC50 Determination
The Omnia Assay (Invitrogen) has been optimized for His-tagged full length RSK1 (RPS6KA1, Millipore 14-509) and for His-tagged full-length RSK2 (RPS6KA3, Invitrogen PV3323). In this assay system, Omnia ST Peptide 6 (Invitrogen KNZ1061) functions as a substrate for RSK1 or RSK2. Phosphorylation of this SOX-containing peptide results in an increase in fluorescence at 485 nm upon excitation at 360 nm.
Assays are carried out in 384-well OptiPlates (Perkin Elmer 6007290) in a total volume of 20 μL containing RSK1 ([…]) or RSK2 ([…]), Omnia ST Peptide 6 (5 μM), ATP (15 μM, Km=16.3 μM), and test compound (variable) in RSK assay buffer (50 mM HEPES, pH 7.5, 10 mM MgCl2, 0.01% Tween-20, 1% glycerol, 1 mM DTT, 1 mM EGTA, 0.01% BSA) with 1% DMSO.
IC50s for test compounds are typically determined using an 11-point three-fold serial dilution with a final assay concentration ranging either from 170 μM to […] or from 17 μM to […]. All compound concentrations are assayed in duplicate. Initial compound dilutions are prepared at 100× concentration in 100% DMSO from a 10 mM stock solution. Compounds are further diluted 1:25 in assay buffer resulting in a 4× concentrated solution.
To run the assay 5 μL of the above 4× concentrated compound solution (or 4% DMSO for positive controls) is added to the assay plate followed by 5 μL of a solution containing peptide (20 μM) and ATP (60 μM) in assay buffer. The reaction is initiated by the addition of 10 μL of RSK1 ([…]) or RSK2 ([…]) in assay buffer, or assay buffer alone for negative controls. The increase in fluorescence due to peptide phosphorylation is monitored continuously as a function of time using a Spectramax M5 plate reader (Molecular Devices) equipped with SoftMax Pro software.
The slopes from the linear portion of progress curves are used to determine IC50 values by non-linear curve-fitting to a four-parameter equation using GraphPad Prism (GraphPad Software, Inc.) or XLFit (IDBS). IC50's are determined in duplicate (n=2) and Ki values are calculated from IC50 values using the Cheng-Prusoff equation assuming a competitive mode of inhibition.
Broadly, the IC50 is the point on the concentration scale where inhibition reaches its midpoint. As for `COc1ccc(N2C(=O)[C@@H](C)N(C3CCCCC3)c3nc(Nc4ccc5[nH]ncc5c4)ncc32)cc1F` [Example 55, (7R)-8-cyclohexyl-5-(3-fluoro-4-methoxyphenyl)-2-(1H-indazol-5-ylamino)-7-methyl-7,8-dihydropteridin-6(5H)-one], the IC50 is ≤ 100 nM.
Turning to `C[C@@H]1C(=O)N(c2cccc(C#N)c2)c2cnc(Nc3cc4cn[nH]c4cc3F)nc2N1C1CCCCC1` [Example 56, 3-[(7R)-8-cyclohexyl-2-[(6-fluoro-1H-indazol-5-yl)amino]-7-methyl-6-oxo-7,8-dihydropteridin-5(6H)-yl]benzonitrile], the IC50 is ≤ 100 nM.
For the compound `C[C@@H]1C(=O)N(c2cnn(C)c2)c2cnc(Nc3ccc4[nH]ncc4c3)nc2N1C1CCCCC1` [Example 58, (7R)-8-cyclohexyl-2-(1H-indazol-5-ylamino)-7-methyl-5-(1-methyl-1H-pyrazol-4-yl)-7,8-dihydropteridin-6(5H)-one], the IC50 was ≤ 100 nM.
For `Cc1cc(Nc2ncc3c(n2)N(C2CCCCC2)[C@H](C)C(=O)N3c2cccc(C#N)c2)cc2cn[nH]c12` [Example 59, 3-[(7R)-8-cyclohexyl-7-methyl-2-[(7-methyl-1H-indazol-5-yl)amino]-6-oxo-7,8-dihydropteridin-5(6H)-yl]benzonitrile] the value was 100 to 1000 nM.
For `CC1C(=O)N(c2ccccc2)c2cnc(Nc3ccc4c(c3)CC(=O)N4)nc2N1C1CCCCC1` (stereo not shown) [Example 60, 8-cyclohexyl-7-methyl-2-[(2-oxo-2,3-dihydro-1H-indol-5-yl)amino]-5-phenyl-7,8-dihydropteridin-6(5H)-one] the value was ≤ 100 nM.
As for `CC1C(=O)N(c2ccccc2)c2cnc(Nc3ccc4[nH]ncc4c3)nc2N1C1CCCCC1` (stereo not shown) [Example 61, 8-cyclohexyl-2-(1H-indazol-5-ylamino)-7-methyl-5-phenyl-7,8-dihydropteridin-6(5H)-one], the IC50 was ≤ 100 nM.
On to `C[C@H]1C(=O)N(c2ccccc2)c2cnc(Nc3ccc4[nH]ncc4c3)nc2N1C1CCCCC1` [Example 62, (7S)-8-cyclohexyl-2-(1H-indazol-5-ylamino)-7-methyl-5-phenyl-7,8-dihydropteridin-6(5H)-one], for which the IC50 is 100 to 1000 nM.
For `C[C@@H]1C(=O)N(c2ccc(C(=O)O)cc2)c2cnc(Nc3ccc4[nH]ncc4c3)nc2N1C1CCCCC1` [Example 63, 4-[(7R)-8-cyclohexyl-2-(1 H-indazol-5-ylamino)-7-methyl-6-oxo-7,8-dihydropteridin-5(6H)-yl]benzoic acid] the value was ≤ 100 nM.
In the case of `CC1C(=O)N(c2ccccc2)c2cnc(Nc3ccc4[nH]ncc4c3)nc2N1C1CCCC1` (stereo not shown) [Example 64, 8-cyclopentyl-2-(1H-indazol-5-ylamino)-7-methyl-5-phenyl-7,8-dihydropteridin-6(5H)-one] it was ≤ 100 nM.
For the compound `CC1C(=O)N(c2ccccc2)c2cnc(Nc3ccc4c(c3)CC(=O)N4)nc2N1C1CCCC1` (stereo not shown) [Example 65, 8-cyclopentyl-7-methyl-2-[(2-oxo-2,3-dihydro-1H-indol-5-yl)amino]-5-phenyl-7,8-dihydropteridin-6(5H)-one], the IC50 was ≤ 100 nM.
For `C[C@H]1C(=O)N(c2ccccc2)c2cnc(Nc3ccc4[nH]ncc4c3)nc2N1C1CCCC1` [Example 67, (7S)-8-cyclopentyl-2-(1H-indazol-5-ylamino)-7-methyl-5-phenyl-7,8-dihydropteridin-6(5H)-one] the value was 100 to 1000 nM; for `C[C@@H]1C(=O)N(c2ccccc2)c2cnc(Nc3ccc4c(c3)CC(=O)N4)nc2N1C1CCCC1` [Example 68, (7R)-8-cyclopentyl-7-methyl-2-[(2-oxo-2,3-dihydro-1H-indol-5-yl)amino]-5-phenyl-7,8-dihydropteridin-6(5H)-one], ≤ 100 nM.
For the compound `C[C@@H]1C(=O)N(c2cccc(C#N)c2)c2cnc(Nc3ccc4[nH]ncc4c3)nc2N1C1CCCC1` [Example 69, 3-[(7R)-8-cyclopentyl-2-(1H-indazol-5-ylamino)-7-methyl-6-oxo-7,8-dihydropteridin-5(6H)-yl]benzonitrile], the IC50 was ≤ 100 nM.
